According to PubChem BioAssay (NCI):
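Method: 48-hour compound exposure of cells in 96-well plates, five concentrations, linear interpolation of endpoints. GI50: concentration for 50% inhibition of growth. TGI: total growth inhibition.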

Columns and labels:
Assay in all cases: inhibition of tumour cell growth, NCI panel, 48 h
[1] = tested on: HS 578T breast
[2] = tested on: SK-MEL-5 melanoma
[3] = tested on: NCI-H23 lung
[4] = tested on: SK-MEL-2 melanoma
[5] = tested on: MCF7 breast
[6] = tested on: CAKI-1 renal
[7] = tested on: HOP-92 NSCLC
[8] = tested on: SN12C renal
[9] = tested on: HT29 colon
[10] = tested on: OVCAR-8 ovarian
[11] = tested on: SNB-19 CNS
[12] = tested on: HCT-15 colon
[13] = tested on: A549 NSCLC
[14] = tested on: EKVX NSCLC
[15] = tested on: NCI/ADR-RES ovarian
[16] = tested on: IGROV1 ovarian
[17] = tested on: MALME-3M melanoma
[18] = tested on: DU-145 prostate
[19] = tested on: MDA-MB-231 breast
[20] = tested on: OVCAR-3 ovarian
[21] = tested on: HL-60(TB) leukemia
[22] = tested on: SNB-75 CNS
[23] = tested on: HCT-116 colon
[24] = tested on: BT-549 breast
[25] = tested on: 786-0 renal
[26] = tested on: RXF 393 renal
[27] = tested on: SK-OV-3 ovarian
[28] = tested on: HCC-2998 colon
[29] = tested on: A498 renal
[30] = tested on: RPMI-8226 leukemia

## CC1(C)N=C(N)N=C(N)N1c1ccc(CCCCc2ccccc2)c(Cl)c1
[1]
  TGI: 39.4 µM
[2]
  GI50: 0.0628 µM
  TGI: 1.32 µM
[3]
  GI50: 0.0543 µM
  TGI: 10.2 µM
[4]
  GI50: 0.0394 µM
  TGI: 12.4 µM
[5]
  GI50: 0.0256 µM
  TGI: 2.12 µM
[6]
  GI50: 0.869 µM
  TGI: 16.8 µM
[7]
  GI50: 0.464 µM
  TGI: 4.48 µM
[8]
  GI50: 0.0521 µM
  TGI: 7.02 µM
[9]
  GI50: < 0.01 µM
  TGI: 1.55 µM
[10]
  GI50: 0.0606 µM
  TGI: > 39.7 µM
[11]
  GI50: 0.0746 µM
  TGI: > 35.9 µM
[12]
  GI50: 0.522 µM
  TGI: 35.5 µM
[13]
  GI50: < 0.01 µM
  TGI: 15 µM
[14]
  GI50: 0.294 µM
  TGI: 25.1 µM
[15]
  GI50: 6.74 µM
  TGI: > 100 µM
[16]
  GI50: < 0.0185 µM
  TGI: 2.34 µM
[17]
  GI50: 0.855 µM
  TGI: 8.93 µM
[18]
  GI50: 0.0577 µM
  TGI: 14 µM
[19]
  GI50: 0.444 µM
  TGI: 5.85 µM
[20]
  GI50: 0.0541 µM
  TGI: 1.76 µM
[21]
  TGI: 3.26 µM
[22]
  GI50: 0.124 µM
  TGI: 5.87 µM
[23]
  GI50: < 0.01 µM
  TGI: 1.61 µM
[24]
  GI50: 0.161 µM
  TGI: 5.19 µM
[25]
  GI50: 0.055 µM
  TGI: 13.1 µM
[26]
  GI50: 0.334 µM
  TGI: 7.79 µM
[27]
  GI50: 0.43 µM
  TGI: 11.1 µM
[28]
  GI50: 0.131 µM
  TGI: 3.52 µM
[29]
  GI50: 0.746 µM
  TGI: 14.5 µM
[30]
  GI50: 0.127 µM
  TGI: 11.6 µM
